Measurements published in ChEMBL document CHEMBL3045098, “Petra, Osiris and Molinspiration (POM) together as a successful support in drug design: antibacterial activity and biopharmaceutical characterization of some azo Schiff bases” (2012).
Calls of active or inactive are those of the source. The rule behind the calls is not given here.

Experiments:
Type in all cases: functional
[1] = tested on: Bacillus subtilis; experiment: Antimicrobial activity against Bacillus subtilis at 2000 ug after 24 hr by disk diffusion method relative to control
[2] = tested on: Klebsiella pneumoniae; experiment: Antimicrobial activity against Klebsiella pneumoniae at 2000 ug after 24 hr by disk diffusion method relative to control
[3] = tested on: Staphylococcus aureus; experiment: Antimicrobial activity against Staphylococcus aureus at 2000 ug after 24 hr by disk diffusion method relative to control
[4] = tested on: Staphylococcus aureus; experiment: Antimicrobial activity against Staphylococcus aureus at 2000 ug after 24 hr by disk diffusion method; conditions: read-out: IZ
[5] = tested on: Bacillus subtilis; experiment: Antimicrobial activity against Bacillus subtilis at 2000 ug after 24 hr by disk diffusion method; conditions: read-out: IZ
[6] = tested on: Pseudomonas aeruginosa; experiment: Antimicrobial activity against Pseudomonas aeruginosa at 2000 ug after 24 hr by disk diffusion method relative to control
[7] = tested on: Escherichia coli; experiment: Antimicrobial activity against Escherichia coli at 2000 ug after 24 hr by disk diffusion method relative to control
[8] = tested on: Escherichia coli; experiment: Antimicrobial activity against Escherichia coli at 2000 ug after 24 hr by disk diffusion method; conditions: read-out: IZ
[9] = tested on: Klebsiella pneumoniae; experiment: Antimicrobial activity against Klebsiella pneumoniae at 2000 ug after 24 hr by disk diffusion method; conditions: read-out: IZ
[10] = tested on: Pseudomonas aeruginosa; experiment: Antimicrobial activity against Pseudomonas aeruginosa at 2000 ug after 24 hr by disk diffusion method; conditions: read-out: IZ

SMILES | inhibition (INH) [1] | inhibition [2] | inhibition (INH) [3] | zone of inhibition at 2000 µg/disc [4] | zone of inhibition at 2000 µg/disc [5] | inhibition [6] | inhibition [7] | zone of inhibition at 2000 µg/disc [8] | inhibition (INH) [2] | zone of inhibition at 2000 µg/disc [9] | inhibition (INH) [6] | inhibition (INH) [7] | zone of inhibition at 2000 µg/disc [10]
COc1ccc(/N=N/c2cc(/C=N/c3ccc(S(=O)(=O)c4cccc(/N=C/c5cc(/N=N/c6ccc(OC)cc6)cc(OC)c5O)c4)cc3)c(O)c(OC)c2)cc1 | 64% | inactive | 45% | 10 mm | 14 mm | inactive | inactive |  |  |  |  |  | 
COc1ccc(/N=C/c2cc(/N=N/c3ccc(OC)cc3)cc(OC)c2O)cc1 |  | inactive |  |  |  | inactive | inactive |  |  |  |  |  | 
COc1ccc(/N=N/c2cc(/C=N/c3ccc(Oc4cccc(/N=C/c5cc(/N=N/c6ccc(OC)cc6)cc(OC)c5O)c4)cc3)c(O)c(OC)c2)cc1 |  | inactive |  |  |  | inactive | inactive |  |  |  |  |  | 
COc1ccc(/N=N/c2cc(/C=N/c3ccccc3C)c(O)c(OC)c2)cc1 |  | inactive |  |  |  | inactive | inactive |  |  |  |  |  | 
COc1ccc(/N=N/c2cc(C=O)c(O)c(OC)c2)cc1 | 45% | inactive | 45% | 10 mm | 10 mm | inactive | inactive |  |  |  |  |  | 
COc1ccc(/N=N/c2cc(/C=N/c3ccccc3)c(O)c(OC)c2)cc1 | 45% | inactive | 45% | 10 mm | 10 mm | inactive | inactive |  |  |  |  |  | 
CN[C@@H]1[C@H](O[C@H]2[C@H](O[C@H]3[C@H](O)[C@@H](O)[C@H](N=C(N)N)[C@@H](O)[C@@H]3N=C(N)N)O[C@@H](C)[C@]2(O)C=O)O[C@@H](CO)[C@H](O)[C@H]1O [STREPTOMYCIN] | 64% |  | 45% | 10 mm | 14 mm |  |  | 14 mm | 64% | 14 mm | 64% | 64% | 14 mm
COc1ccc(/N=N/c2cc(/C=N/c3ccccc3OC)c(O)c(OC)c2)cc1 |  | inactive |  |  |  | inactive | inactive |  |  |  |  |  | 
CC1(C)S[C@@H]2[C@H](NC(=O)[C@H](N)c3ccccc3)C(=O)N2[C@H]1C(=O)O |  | inactive |  |  |  | inactive | inactive |  |  |  |  |  | 
COc1ccc(/N=N/c2cc(/C=N/c3cccc(OC)c3)c(O)c(OC)c2)cc1 | 45% | inactive | 45% | 10 mm | 10 mm | inactive | inactive |  |  |  |  |  | 
COc1ccc(/N=N/c2cc(/C=N/c3cccc(O)c3)c(O)c(OC)c2)cc1 | 45% | inactive | 45% | 10 mm | 10 mm | inactive | inactive |  |  |  |  |  | 
COc1ccc(/N=N/c2cc(/C=N/Cc3ccccc3)c(O)c(OC)c2)cc1 |  | inactive |  |  |  | inactive | inactive |  |  |  |  |  | 
COc1ccc(/N=N/c2cc(/C=N/c3cccc(C)c3)c(O)c(OC)c2)cc1 | 45% | inactive | 45% | 10 mm | 10 mm | inactive | inactive |  |  |  |  |  | 
